{"source": "patent US8962322B2", "about": "“Enhancers of induced pluripotent stem cell reprogramming” (City of Hope, priority 2012, dated 2015)", "key": {"[1]": {"biological_target": "luciferase (Photinus pyralis, UniProt P08659)", "sequence (P08659 whole entry)": "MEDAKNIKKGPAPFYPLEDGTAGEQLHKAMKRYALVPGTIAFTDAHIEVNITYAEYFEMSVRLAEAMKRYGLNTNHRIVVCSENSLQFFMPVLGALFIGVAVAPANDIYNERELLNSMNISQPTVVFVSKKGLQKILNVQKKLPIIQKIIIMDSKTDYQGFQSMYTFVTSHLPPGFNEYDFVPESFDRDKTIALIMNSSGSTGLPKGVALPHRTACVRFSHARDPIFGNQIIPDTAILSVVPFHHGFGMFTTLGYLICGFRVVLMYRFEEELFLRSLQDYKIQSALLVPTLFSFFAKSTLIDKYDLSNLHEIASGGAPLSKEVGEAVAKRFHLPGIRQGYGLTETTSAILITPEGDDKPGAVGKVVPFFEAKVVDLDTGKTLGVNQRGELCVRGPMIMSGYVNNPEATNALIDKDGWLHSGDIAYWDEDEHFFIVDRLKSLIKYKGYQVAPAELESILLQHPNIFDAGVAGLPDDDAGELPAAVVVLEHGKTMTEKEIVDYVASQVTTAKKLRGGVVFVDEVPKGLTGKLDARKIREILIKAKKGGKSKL", "assay": "inhibition of luciferase activity at 1 μM (applicant's observation)", "from_the_text": "OAC1 and related analogs belong to a structural class of 5-substituted pyrrolo[2,3-b]pyridine- and indole-based benzamides. Very little is reported about their biological activities. […] However, in a different assay called ATLAS (any target ligand affinity screen), no inhibition was detected (49)."}, "[2]": {"system": "human Oct4 promoter", "assay": "Oct4-luc luciferase reporter assay (stably transfected CV1 cells)", "type": "cell-based", "conditions": "for fold induction at 1 µM: compound at 1 μM, Oct4-luc cells, triplicates"}, "[3]": {"system": "p21", "assay": "RT-PCR of p21 expression in treated MEFs", "type": "cell-based, mouse", "conditions": "MEFs treated for two days", "experimental": "(§1) Inhibition of the p53-p21 signaling increased reprogramming efficiency (26, 28-31, 41). To investigate whether compound OAC1 enhanced reprogramming efficiency by affecting this pathway, MEFs were treated with vehicle control or OAC1 and determined the expression level of p53 and p21 in the treated cells.\n(§2) RT-PCR analysis: Total RNA was purified with Trizol reagent (Invitrogen). Reverse transcription was performed with 1 μg of RNA using Omniscript® Reverse Transcription Kit (Qiagen). Quantitative PCR was performed using iTaq SYBR Green Supermix with Rox (Bio-rad) in Applied Biosystem Step one plus real-time PCR system. […]"}, "[4]": {"system": "p53", "assay": "RT-PCR of p53 expression in treated MEFs", "type": "cell-based, mouse", "conditions": "MEFs treated for two days", "experimental": "as §1, §2"}, "[5]": {"system": "endogenous Oct4", "assay": "RT-PCR of endogenous Oct4 mRNA in treated MEFs", "type": "cell-based, mouse", "conditions": "versus vehicle", "experimental": "MEFs were treated with vehicle control or OAC 1 to test whether OAC 1 activates endogenous Oct4 and Nanog gene transcription. […] Oct4, Sox2, and Nanog are central to the transcriptional regulatory hierarchy for ESC pluripotency, forming the core transcriptional regulatory circuitry in ESCs (37). […] OAC1 activated Sox2 mRNA expression, along with Oct4 and Nanog (FIG. 61).\nas §2"}}, "note": "Where two headings read alike, the source gives them in different places.", "data": [{"smiles": "O=C(Nc1cc2cc[nH]c2cn1)c1ccccc1", "note": "[OAC1, N-(1H-6-azaindol-5-yl)benzamide]", "values": [{"measurement": "inhibition of luciferase activity", "setting": "[1]", "value": "no inhibition"}, {"measurement": "activation of Oct4-luc at 50 nM", "setting": "[2]; 50 nM, two days after compound treatment", "value": "activated Oct4-luc considerably"}, {"measurement": "fold induction at 1 µM", "setting": "[2]; Homo sapiens, CV-1, 24 h, read-out: Oct4-luc Activity", "value": "≥ 1.8"}, {"measurement": "induction of Oct4-luc, comparison with known reprogramming enhancers (in words)", "setting": "[2]; OAC1 1 μM, BIO 2 μM, BIX 2 μM, AzaC 2 μM, Vc 25 μg/ml, Am580 10 nM, tranylcypromine 5 μM, VPA 0.5 mM, two days", "value": "potent induction"}, {"measurement": "fold induction at 1 µM", "setting": "[2]; read-out: Oct4-luc fold Induction", "value": 5}, {"measurement": "concentration of highest induction of Oct4-luc", "setting": "[2]; dose response 50 nM to 1 μM, 2 to 7 days", "value": 1, "unit": "µM"}, {"measurement": "activation of human Oct4 reporter (in words)", "setting": "[2]; triplicate luciferase reporter assays", "value": "considerable activation"}, {"measurement": "p21 expression level versus DMSO", "setting": "[3]", "value": "no significant difference"}, {"measurement": "p53 expression level versus DMSO", "setting": "[4]", "value": "no significant difference"}, {"measurement": "endogenous Oct4 mRNA expression", "setting": "[5]", "value": "activated"}]}]}
